Laboratory results taken from patent publication US20260115250A1, “METHODS OF TREATING AGE-RELATED MACULAR DEGENERATION” (Character Biosciences, Inc., priority 2022, published 2026).
pKd: −log10 of the molar value. Like-named read-outs stand apart in the source and are kept apart here. Ends that are not written are not given here. Peptide text beside a SMILES is read from it.

Key:
[1] = biological target: LDLR (Homo sapiens, UniProt P01130); test: LDLR binding (SPR), high surfactant preparation
Method: The table shown in FIG. 23 illustrates LDLR binding data (SPR), using a high surfactant preparation. Recombinant LDLR was diluted in 10 mM acetate buffer pH 4.5 and amine coupled to a CM5 chip at 1000 RU. Peptides were diluted to 5 μM in running buffer (HBS-P+, 1 mM CaCl2) and serially diluted 1:3 for 5 total concentrations. Peptides were exposed to immobilized LDLR at a rate of […] for 120 seconds. Between cycles, the chip surface was regenerated with 3 injections of 50 mM NaOH/100 mM EDTA. Multi-Cycle Kinetics was performed on a Biacore Insight Evaluation Software and binding kinetics were analyzed with a 1:1 binding model.

[2] = tested on: HMC3 cells; test: HMC3 cholesterol efflux; format: cell-based, human; conditions: HMC3, 20 μM peptide, 4 hours
Method: (§1) FIGS. 27A-27B and FIG. 28 illustrate HMC3 cholesterol efflux. Fully confluent 96-well plates of HMC3 cells were treated for 1 hour in serum-free EMEM containing 10 mM methyl-β-cyclodextrin, 100 μM cholesterol, and 25 μM BODIPY cholesterol. Cells were then washed and incubated overnight in serum free EMEM containing 1 μM LXR agonist GW3965, 2 μg/mL ACAT inhibitor, and 0.2% BSA (LXR Agonist treated), or serum-free EMEM containing 2 μg/mL ACAT inhibitor, and 0.2% BSA (Control). Cells were washed and incubated with 20 μM peptides diluted in serum-free Fluorobrite DMEM for 4 hours at 37° C. Media was transferred to a new 96-well plate and fresh serum-free Fluorobrite DMEM was placed on the cells. Media and cellular fluorescence were read on a Promega GloMax at 475 nm excitation, 500-550 emission. Fluorescence values were background corrected from no treatment conditions and percent efflux was calculated by the following equation: % efflux=(Media Fluorescence values)/(Media+Cell Fluorescence values). Data are presented as mean+SD over two runs per peptide.
as §1, with “FIGS. 30A-30J show” for “FIGS. 27A-27B and FIG. 28 illustrate”, “cholesterol efflux titration curves for the indicated peptides.” for “cholesterol efflux.”, “μM” for “μM LXR agonist”, “or serum free” for “or serum-free”, “with 0-100” for “with 20”, “peptides serially” for “peptides”

[3] = key assays (summary statement on homologous variants)
[4] = tested on: ARPE-19 cells; test: ARPE-19 cholesterol efflux; format: cell-based, human; conditions: ARPE-19, 20 μM peptide, 4 hours
Method: as §1, with “Fully” for “FIGS. 27A-27B and FIG. 28 illustrate HMC3 cholesterol efflux. Fully”, “of ARPE-19” for “of HMC3”, “serum-free DMEM” for “serum-free EMEM”, “in serum-free DMEM” for “in serum free EMEM”, “μM” for “μM LXR agonist”, “or serum free DMEM” for “or serum-free EMEM”

[5] = biological target: T1, ABCA1 (Homo sapiens, UniProt O95477); test: membrane ABCA1 stability testing in ARPE-19 cells treated with mCRP; format: cell-based; conditions: ARPE-19, mCRP, 20 μM peptide, 24 hours
T1 construct: endogenous in cells; host or cells: ARPE-19
Method: ARPE-19 cells were seeded at 100,000 cells per well on 12-well plates and were allowed to grow to confluence. To prepare monomeric CRP (mCRP), recombinant CRP was prepared in a PBS solution containing 8 M Urea and 10 mM EDTA and incubated at 37° C. for 2 hours prior to desalting with a Zeba spin column (7K MW cutoff). mCRP was prepared to a 2× solution of 20 μg/mL. A 2× solution of 40 μM peptides was prepared in serum-free DMEM and serially diluted 1:2 over 4 concentrations. mCRP and peptides were added 1:1 to cells for 24 hours at 37° C. before isolating membrane protein and measuring membrane ABCA1 levels by western blot. Blots were quantified in ImageJ. Signals were further normalized to the LXR agonist treated group to determine percent (%) ABCA1 remaining. Treatment with LXR agonist increased membrane ABCA1 levels in this assay, but following treatment with mCRP, membrane ABCA1 levels were decreased.
FIGS. 35 and 36 show membrane ABCA1 stability testing using ARPE-19 cells. ARPE-19 cells were seeded at 100,000 cells per well on 12-well plates and were allowed to grow to confluence. To prepare monomeric CRP (mCRP), recombinant CRP was prepared in a PBS solution containing 8 M Urea and 10 mM EDTA and incubated at 37° C. for 2 hours prior to desalting with a Zeba spin column (7K MW cutoff). mCRP was prepared to a 2× solution of 20 μg/mL. A 2× solution of 40 μM peptides was prepared in serum-free DMEM. CRP and peptides were added 1:1 to cells for 24 hours at 37° C. before isolating membrane protein and measuring membrane ABCA1 levels by western blot. Blots were quantified in ImageJ. In FIG. 35, Signals were further normalized to the T-087 treated group to determine percent (%) ABCA1 levels compared to peptide T-087 treated cells. In FIG. 36, Signals were further normalized to the peptide T-101 treated group to determine percent (%) ABCA1 levels compared to peptide T-101 treated cells.

T1 sequence (O95477 whole entry): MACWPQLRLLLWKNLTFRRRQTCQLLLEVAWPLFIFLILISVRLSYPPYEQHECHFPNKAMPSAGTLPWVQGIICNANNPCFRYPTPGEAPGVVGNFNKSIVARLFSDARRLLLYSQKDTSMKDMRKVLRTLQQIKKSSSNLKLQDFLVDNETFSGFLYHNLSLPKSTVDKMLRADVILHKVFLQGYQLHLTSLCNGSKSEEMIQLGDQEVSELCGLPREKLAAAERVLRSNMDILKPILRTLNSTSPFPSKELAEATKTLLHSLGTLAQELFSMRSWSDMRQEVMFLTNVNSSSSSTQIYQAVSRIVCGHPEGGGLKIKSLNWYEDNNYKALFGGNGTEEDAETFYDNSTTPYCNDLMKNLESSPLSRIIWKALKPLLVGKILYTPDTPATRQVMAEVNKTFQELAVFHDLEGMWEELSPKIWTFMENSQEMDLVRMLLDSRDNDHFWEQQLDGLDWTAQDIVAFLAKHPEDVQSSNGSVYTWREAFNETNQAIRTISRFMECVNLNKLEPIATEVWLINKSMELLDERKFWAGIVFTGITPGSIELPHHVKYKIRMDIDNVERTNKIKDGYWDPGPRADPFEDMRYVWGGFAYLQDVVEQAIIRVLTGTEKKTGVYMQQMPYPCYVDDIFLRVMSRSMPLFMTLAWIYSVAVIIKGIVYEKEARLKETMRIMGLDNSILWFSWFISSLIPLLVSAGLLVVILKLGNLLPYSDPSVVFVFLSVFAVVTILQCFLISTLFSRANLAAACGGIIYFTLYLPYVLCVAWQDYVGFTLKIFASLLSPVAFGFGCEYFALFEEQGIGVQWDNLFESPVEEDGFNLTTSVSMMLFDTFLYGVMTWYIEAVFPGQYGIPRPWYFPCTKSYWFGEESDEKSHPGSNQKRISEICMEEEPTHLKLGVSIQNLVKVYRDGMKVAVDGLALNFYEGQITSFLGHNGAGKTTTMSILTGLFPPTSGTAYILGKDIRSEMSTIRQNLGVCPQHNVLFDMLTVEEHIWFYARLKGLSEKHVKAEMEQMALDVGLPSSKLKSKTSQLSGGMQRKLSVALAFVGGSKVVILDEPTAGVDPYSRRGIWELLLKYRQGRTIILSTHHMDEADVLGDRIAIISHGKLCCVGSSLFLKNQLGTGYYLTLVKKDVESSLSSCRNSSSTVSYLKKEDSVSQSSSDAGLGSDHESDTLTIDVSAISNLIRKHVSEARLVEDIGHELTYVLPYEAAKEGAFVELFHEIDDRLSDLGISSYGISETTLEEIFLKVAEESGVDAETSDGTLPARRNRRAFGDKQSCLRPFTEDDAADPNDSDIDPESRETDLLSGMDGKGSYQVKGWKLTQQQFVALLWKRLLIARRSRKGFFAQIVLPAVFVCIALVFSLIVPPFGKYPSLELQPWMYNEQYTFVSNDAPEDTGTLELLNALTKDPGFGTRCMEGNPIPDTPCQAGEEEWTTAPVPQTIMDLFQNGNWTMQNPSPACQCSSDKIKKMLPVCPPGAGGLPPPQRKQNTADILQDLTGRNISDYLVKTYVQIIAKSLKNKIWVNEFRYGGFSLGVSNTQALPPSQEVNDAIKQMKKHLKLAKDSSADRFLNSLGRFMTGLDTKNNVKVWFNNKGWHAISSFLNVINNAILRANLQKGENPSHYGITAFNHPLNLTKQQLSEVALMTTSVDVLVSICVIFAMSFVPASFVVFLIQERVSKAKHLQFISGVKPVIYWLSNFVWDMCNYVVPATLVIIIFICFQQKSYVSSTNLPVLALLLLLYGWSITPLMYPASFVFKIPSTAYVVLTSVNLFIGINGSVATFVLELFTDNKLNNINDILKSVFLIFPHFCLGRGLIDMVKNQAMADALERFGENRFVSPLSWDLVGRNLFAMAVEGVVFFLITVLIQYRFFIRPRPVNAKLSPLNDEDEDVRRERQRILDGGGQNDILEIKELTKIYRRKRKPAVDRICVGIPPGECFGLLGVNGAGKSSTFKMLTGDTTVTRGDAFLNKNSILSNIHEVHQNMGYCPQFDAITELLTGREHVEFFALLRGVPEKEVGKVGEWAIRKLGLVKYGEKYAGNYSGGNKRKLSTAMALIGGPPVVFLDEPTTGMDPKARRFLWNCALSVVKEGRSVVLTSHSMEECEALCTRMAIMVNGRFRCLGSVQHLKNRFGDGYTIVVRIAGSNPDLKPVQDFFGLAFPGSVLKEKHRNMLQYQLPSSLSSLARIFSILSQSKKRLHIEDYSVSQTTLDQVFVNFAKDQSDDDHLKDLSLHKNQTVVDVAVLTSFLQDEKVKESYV
Sequence of LDLR (P01130 22-860): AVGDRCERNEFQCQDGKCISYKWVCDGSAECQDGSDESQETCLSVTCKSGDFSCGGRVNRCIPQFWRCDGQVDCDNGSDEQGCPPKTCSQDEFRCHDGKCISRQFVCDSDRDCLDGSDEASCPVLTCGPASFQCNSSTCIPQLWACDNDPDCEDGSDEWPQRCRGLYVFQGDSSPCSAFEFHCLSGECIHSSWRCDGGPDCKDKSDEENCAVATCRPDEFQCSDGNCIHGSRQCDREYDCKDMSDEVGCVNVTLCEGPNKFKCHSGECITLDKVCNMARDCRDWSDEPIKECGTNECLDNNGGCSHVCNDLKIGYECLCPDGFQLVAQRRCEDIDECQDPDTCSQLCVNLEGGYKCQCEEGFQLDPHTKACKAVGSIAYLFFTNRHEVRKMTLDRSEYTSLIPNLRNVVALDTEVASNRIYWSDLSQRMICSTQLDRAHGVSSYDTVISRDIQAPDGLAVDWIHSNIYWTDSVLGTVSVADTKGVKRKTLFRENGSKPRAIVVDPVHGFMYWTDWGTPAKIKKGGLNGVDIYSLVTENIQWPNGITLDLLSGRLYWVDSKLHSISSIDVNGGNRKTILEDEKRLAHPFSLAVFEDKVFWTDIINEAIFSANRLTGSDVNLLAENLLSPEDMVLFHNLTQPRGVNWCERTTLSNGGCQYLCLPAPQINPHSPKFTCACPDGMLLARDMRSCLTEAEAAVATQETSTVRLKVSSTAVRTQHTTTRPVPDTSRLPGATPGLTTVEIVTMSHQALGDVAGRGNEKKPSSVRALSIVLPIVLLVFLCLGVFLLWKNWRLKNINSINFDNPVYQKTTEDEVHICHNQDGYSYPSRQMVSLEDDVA

Row | membrane ABCA1 levels compared to peptide T-087 treated cells [5] | Molecule | cholesterol efflux following LXR agonist treatment [4] | other results
1 | – | CSCC[C@H](NC(=O)[C@H](CC(C)C)NC(=O)[C@H](CC(=O)O)NC(=O)[C@H](CCCCN)NC(=O)CNC(=O)[C@H](Cc1ccc(O)cc1)NC(=O)[C@H](CC(=O)O)NC(=O)[C@@H](NC(=O)[C@@H](NC(=O)[C@@H](NC(=O)[C@H](CCC(N)=O)NC(=O)[C@H](Cc1ccccc1)NC(=O)[C@H](Cc1ccc(O)cc1)NC(=O)[C@H](CCC(N)=O)NC(=O)[C@H](CO)NC(=O)[C@@H](NC(=O)[C@H](CC(C)C)NC(=O)[C@H](CO)NC(=O)[C@H](CCCNC(=N)N)NC(=O)[C@H](C)NC(=O)[C@H](CC(C)C)NC(=O)[C@H](CCCNC(=N)N)NC(=O)[C@H](CCCCN)NC(=O)[C@H](CCCNC(=N)N)NC(=O)[C@H](CC(C)C)NC(=O)[C@H](CCCCN)NC(=O)[C@H](CCCNC(=N)N)NC(=O)[C@H](CC(C)C)NC(=O)[C@H](Cc1c[nH]cn1)NC(=O)[C@H](CCCNC(=N)N)NC(=O)[C@H](C)NC(=O)[C@@H](N)CC(C)C)C(C)C)[C@@H](C)O)C(C)C)[C@@H](C)O)C(=O)O [T-066] (H-LARHLRKLRKRLARSLVSQYFQTVTDYGKDLM-OH) | – | pKd ([1]; high surfactant preparation (HBS-P+), 1:1 binding model, read-out: binding KD to LDLR): > 5.00
2 | – | DAWERFRALFKELADYFRLGQSTEELRVRLASHLRKLRKRLLRDADDLQKRLAVYQA [T-116] | – | pKd [1]: > 5.00
3 | – | MEDVRGRLVQYRGEVQAMLGQSTEELRVRLASHLRKLRKRLLRDADDLQKRLAVYQA [T-068] | – | pKd [1]: > 5.00
4 | – | T-122: variant of peptide T-101 (RAGADALESALKELKRFIREWT) | – | cholesterol efflux in the presence of LXR agonist [2]: greater cholesterol efflux; activity in key assays of polypeptides of the SEQ ID NO. 101 family [3]: sustained or improved activity
5 | – | T-123: variant of peptide T-101 (RSAADALESALKELKRFIREWT) | – | cholesterol efflux in the presence of LXR agonist [2]: greater cholesterol efflux; activity in key assays of polypeptides of the SEQ ID NO. 101 family [3]: sustained or improved activity
6 | – | T-129: variant of peptide T-101 (RSGADALEAALKELKRFIREWT) | – | cholesterol efflux in the presence of LXR agonist [2]: greater cholesterol efflux; activity in key assays of polypeptides of the SEQ ID NO. 101 family [3]: sustained or improved activity
7 | – | T-136: variant of peptide T-101 (RSGADALESALKELKAFIREWT) | – | cholesterol efflux in the presence of LXR agonist [2]: greater cholesterol efflux; activity in key assays of polypeptides of the SEQ ID NO. 101 family [3]: sustained or improved activity
8 | – | T-139: variant of peptide T-101 (RSGADALESALKELKRFIAEWT) | – | cholesterol efflux in the presence of LXR agonist [2]: greater cholesterol efflux; activity in key assays of polypeptides of the SEQ ID NO. 101 family [3]: sustained or improved activity
9 | – | T-153: variant of peptide T-087 (DPWERFRALFKELADYFR) | increased cholesterol efflux | –
10 | – | T-154: variant of peptide T-087 (DGWERFRALFKELADYFR) | increased cholesterol efflux | –
11 | reduction of membrane ABCA1 levels | T-155: variant of peptide T-087 (DAAERFRALFKELADYFR) | increased cholesterol efflux | –
12 | reduction of membrane ABCA1 levels | T-156: variant of peptide T-087 (DAWARFRALFKELADYFR) | increased cholesterol efflux | –
13 | reduction of membrane ABCA1 levels | T-157: variant of peptide T-087 (DAWEAFRALFKELADYFR) | increased cholesterol efflux | –
14 | reduction of membrane ABCA1 levels | T-158: variant of peptide T-087 (DAWERARALFKELADYFR) | increased cholesterol efflux | –
15 | reduction of membrane ABCA1 levels | T-159: variant of peptide T-087 (DAWERFAALFKELADYFR) | increased cholesterol efflux | –
16 | reduction of membrane ABCA1 levels | T-162: variant of peptide T-087 (DAWERFRAAFKELADYFR) | increased cholesterol efflux | –
17 | – | T-164: variant of peptide T-087 (DAWERFRALFAELADYFR) | increased cholesterol efflux | –
18 | reduction of membrane ABCA1 levels | T-166: variant of peptide T-087 (DAWERFRALFKEAADYFR) | increased cholesterol efflux | –
19 | reduction of membrane ABCA1 levels | T-167: variant of peptide T-087 (DAWERFRALFKELPDYFR) | increased cholesterol efflux | –
20 | – | T-168: variant of peptide T-087 (DAWERFRALFKELGDYFR) | increased cholesterol efflux | –
21 | reduction of membrane ABCA1 levels | T-170: variant of peptide T-087 (DAWERFRALFKELADAFR) | increased cholesterol efflux | –
22 | – | T-171: variant of peptide T-087 (DAWERFRALFKELADYAR) | increased cholesterol efflux | –
23 | – | T-174: variant of peptide T-087 (DAWAAARALFKELADYFR) | increased cholesterol efflux | –
24 | – | T-175: variant of peptide T-087 (DAWERFAAAFKELADYFR) | increased cholesterol efflux | –
25 | – | T-176: variant of peptide T-087 (DAWERFRALAAALADYFR) | increased cholesterol efflux | –
26 | – | T-178: variant of peptide T-087 (DAWERFRALFKELADAAA) | increased cholesterol efflux | –
27 | – | WKDFGERVERALREQFEDLGQSTEELRVRLASHLRKLRKRLLRDADDLQKRLAVYQA [T-113] | – | pKd [1]: > 5.00
